From ChEMBL document CHEMBL5104197, “Structure-Based Optimization of Coumestan Derivatives as Polyketide Synthase 13-Thioesterase(Pks13-TE) Inhibitors with Improved hERG Profiles for Mycobacterium tuberculosis Treatment” (J Med Chem, 2022) come the findings set out here.

As usually defined, the ΔTm is the change in melting temperature against a reference sample. As a reminder, the IC50 is the concentration needed to halve the response being measured. For orientation: half-life means the time in which the quantity being followed falls by half.

Structures are written as SMILES. ≈ marks a conversion by molar mass, not a printed value. Calls of active or inactive are those of the source. The rule behind the calls is not given here. Some results are limits rather than exact numbers.

In data set [1] the test system is Mycobacterium tuberculosis. Description: microbe, parasite or virus in culture. The conditions noted are these: H37Rv, 168 h.
The test system of data set [2] is Mycobacterium tuberculosis. Description: Binding affinity to wild type Mycobacterium tuberculosis Pks13-TE N1640 expressed in Escherichia coli BL21(DE3) pLysS assessed as change in melting temperature at 1:10 compound to protein ratio by nanoDSF thermal stability analysis. In general terms: Differential scanning fluorimetry follows unfolding on heating by fluorescence.

Data set [3] concerns Mycobacterium tuberculosis. Description: Binding affinity to wild type Mycobacterium tuberculosis Pks13-TE N1640 expressed in Escherichia coli BL21(DE3) pLysS assessed as change in melting temperature at 1:5 compound to protein ratio by nanoDSF thermal stability analysis.
For data set [4], the system named is Mycobacterium tuberculosis. In kind it is functional, organism-based. The note with it: H37Rv, dose 100.0 mg/kg, route po, time 7.0 day.
A short description of data set [5]: Metabolic stability in human liver microsomes assessed as microsomal intrinsic clearance measured after 60 mins by LC-MS/MS analysis. In kind it is ADME, Microsome. The conditions noted are these: read-out: CLH. For orientation: Liver microsomes are a subcellular fraction often used to study metabolism.
Data set [6] is described as follows: Metabolic stability in human liver microsomes assessed as liver intrinsic clearance measured after 60 mins by LC-MS/MS analysis. Format: ADME, Microsome. The note with it: read-out: CLH.
Data set [7] can be described thus: Cytotoxicity against African green monkey Vero cells. Format: toxicity, cell-based, Chlorocebus sabaeus.
Data set [8] can be described thus: Metabolic stability in human liver microsomes assessed as compound remaining measured after 60 mins by LC-MS/MS analysis. In kind it is ADME, Microsome. The conditions noted are these: read-out: Stability.
A short description of data set [9]: Metabolic stability in human liver microsomes assessed as half-life measured after 60 mins by LC-MS/MS analysis. Format: ADME, Microsome.
Data set [10] relates to Mycobacterium tuberculosis. Format: functional, organism-based. The conditions noted are these: H37Rv, dose 100.0 mg/kg, route po, time 7.0 day. This is another data set of the same source.
Data set [11] deals with Mycobacterium tuberculosis. In kind it is functional, Vero. The note with it: V4207, 168 h, time 7 day.
Data set [12] in a line: Selectivity index, ratio of CC50 for African green monkey Vero cells to MIC90 for Mycobacterium tuberculosis H37Rv. Format: toxicity. The conditions noted are these: read-out: Selectivity Index.

`O=c1oc2cc(O)ccc2c2oc3ccc(O)c(CN4CCC(F)(F)C4)c3c12` displayed an MIC90 in data set [1] of more than 64 µg/mL.

On to `O=c1oc2cc(O)ccc2c2oc3ccc4c(c3c12)CN(C1CC1)CO4`, for which the MIC90 in [1] was 0.125 µg/mL (≈ 0.358 µM).

For `O=c1oc2cc(O)ccc2c2oc3ccc4c(c3c12)CN(CC1CC1)CO4`, the ΔTm in data set [2] is 5.3 °C; in data set [3], 5.4 °C. This compound also had an MIC90 in data set [1] of 0.0625 µg/mL (≈ 0.172 µM).

`O=c1oc2cc(O)ccc2c2oc3ccc(O)c(CN4CCC5(CC4)CC5)c3c12` showed an MIC90 in data set [1] of 0.25 µg/mL (≈ 0.639 µM).

Turning to `O=c1oc2cc(O)ccc2c2oc3ccc(O)c(CN4CCC(F)CC4)c3c12`, the outcome in data set [4] and in data set [10] was Active. The ΔTm stood at 7.6 °C in data set [2] and 8.8 °C in data set [3]. Also, the CLint scaled in data set [5] worked out at 23.5 mL/min/kg; in data set [6] it was 21 mL/min/kg. Also, the concentration for half-maximal inhibition (IC50) in data set [7] came to 4 µg/mL (≈ 10.4 µM). Moreover, in [8], the remaining at 1 h came to 47.4%. The MIC90 was determined as 0.0625 µg/mL (≈ 0.163 µM) in data set [1] and 0.125 µg/mL (≈ 0.326 µM) in [11]. In [9], the half-life amounted to 0.992 h.

The compound `O=c1oc2cc(O)ccc2c2oc3ccc(O)c(CN4CC[C@@H](F)C4)c3c12` came in with an MIC90 in data set [1] of 0.5 µg/mL (≈ 1.35 µM).

`CC1(C)CCN(Cc2c(O)ccc3oc4c5ccc(O)cc5oc(=O)c4c23)CC1` gave an MIC90 in data set [1] of 0.25 µg/mL (≈ 0.635 µM).

In turn, `COc1ccc2c(c1)oc(=O)c1c2oc2ccc(O)c(CN3CCC(C)(C)CC3)c21` yielded an MIC90 in data set [1] of 8 µg/mL (≈ 19.6 µM).

As to `O=c1oc2cc(O)ccc2c2oc3ccc(O)c(CNCc4ccccc4)c3c12`, in [1], the MIC90 amounted to 1 µg/mL (≈ 2.58 µM).

Turning to `COc1ccc2c(c1)oc(=O)c1c2oc2ccc(O)c(CN3CCC(F)(F)C3)c21`, in data set [1], the MIC90 was more than 64 µg/mL.

The compound `COC(=O)c1c(NC(=O)c2c(F)c(F)c(F)c(F)c2F)sc2c1CCCCC2` came in with an MIC in data set [1] of 1 µM (≈ 0.419 µg/mL).

Take `O=c1oc2cc(O)ccc2c2oc3ccc(O)c(CN4CCCCC4)c3c12`: the values for the ΔTm in data set [2] and in data set [3] were 7.2 °C and 7 °C, respectively. Moreover, the CLint scaled was found to be 11.5 mL/min/kg in data set [5] and 10.4 mL/min/kg in data set [6]. This compound had an MIC90 in [1] of 0.0039 µg/mL (≈ 0.0107 µM). Besides, the half-life in data set [9] was found to be 2 h.

For `CC[C@@H](CO)NCCN[C@@H](CC)CO` [ETHAMBUTOL], the MIC90 in data set [1] came out at 1 µg/mL (≈ 4.89 µM).

In [1], `CC(C)CCN1COc2ccc3oc4c5ccc(O)cc5oc(=O)c4c3c2C1` yielded an MIC90 of 0.0625 µg/mL (≈ 0.165 µM).

In the case of `O=c1oc2cc(O)ccc2c2oc3ccc(O)c(CN4CCCC(F)C4)c3c12` (stereo unspecified), in data set [1], the MIC90 was 0.25 µg/mL (≈ 0.652 µM).

The compound `O=c1oc2cc(O)ccc2c2oc3ccc(O)c(CN4CCC(F)(F)CC4)c3c12` registered an MIC90 in data set [1] of 1 µg/mL (≈ 2.49 µM).

`O=c1oc2cc(O)ccc2c2oc3ccc(O)c(CNC4CCCC4)c3c12` gave an MIC90 in [1] of 0.0039 µg/mL (≈ 0.0107 µM).

Turning to `O=c1oc2cc(O)ccc2c2oc3ccc(O)c(CNC4CCCCC4)c3c12`, in data set [1], the MIC90 was 0.25 µg/mL (≈ 0.659 µM).

Compound `O=C1CCCCN1Cc1c(O)ccc2oc3c4ccc(O)cc4oc(=O)c3c12` gave an MIC90 in data set [1] of more than 64 µg/mL.

In data set [1], `COc1ccc2c(c1)oc(=O)c1c2oc2ccc(O)c(CN3CCC(F)(F)CC3)c21` returned an MIC90 of more than 64 µg/mL.

With `O=c1oc2cc(O)ccc2c2oc3ccc4c(c3c12)CN(C1CCCC1)CO4`, the result in [4] and in [10] was Active. Moreover, the selectivity ratio in data set [12] was 32. Moreover, the thermal shift (ΔTm) in [2] came out at 8.4 °C; in data set [3] it was 8.1 °C. Besides, in data set [5], the CLint scaled was less than 9.6 mL/min/kg. Also, in [7], half-maximal inhibition (IC50) required 0.125 µg/mL (≈ 0.331 µM). For the same compound, the remaining at 1 h in data set [8] stood at 80.9%. Also, the figures for the MIC90 in data set [1] and in [11] were 0.0039 µg/mL (≈ 0.0103 µM) and 0.0078 µg/mL (≈ 0.0207 µM), respectively. Further, the half-life in data set [9] is more than 2.42 h.

As for `NNC(=O)c1ccncc1` [ISONIAZID], the MIC90 in data set [1] turned out to be 0.04 µg/mL (≈ 0.292 µM).

In the case of `COc1ccc2c(c1)oc(=O)c1c2oc2ccc(O)c(CN3CCC(Br)CC3)c21`, the MIC90 in data set [1] was more than 64 µg/mL.

As to `O=C(c1c(O)ccc2oc3c4ccc(O)cc4oc(=O)c3c12)N1CCCCC1`, in data set [1], the MIC90 was more than 64 µg/mL.

With `O=c1oc2cc(O)ccc2c2oc3ccc(O)c(CN4CCCC(F)(F)C4)c3c12`, in [1], the MIC90 was more than 64 µg/mL.

For the compound `O=c1oc2cc(O)ccc2c2oc3ccc(O)c(CN4CCC(Br)CC4)c3c12`, the MIC90 in [1] is 0.125 µg/mL (≈ 0.281 µM).

Consider `CC(C)CCNCc1c(O)ccc2oc3c4ccc(O)cc4oc(=O)c3c12`, for which the MIC90 in data set [1] amounted to 0.125 µg/mL (≈ 0.34 µM).

In turn, `O=c1oc2cc(O)ccc2c2oc3ccc(O)c(CN4CC[C@H](F)C4)c3c12` showed an MIC90 in [1] of 0.125 µg/mL (≈ 0.338 µM).

Consider `CO[C@H]1/C=C/O[C@@]2(C)Oc3c(C)c(O)c4c(O)c(c(/C=N/N5CCN(C)CC5)c(O)c4c3C2=O)NC(=O)/C(C)=C\C=C\[C@H](C)[C@H](O)[C@@H](C)[C@@H](O)[C@@H](C)[C@H](OC(C)=O)[C@@H]1C` [RIFAMPIN], for which, in data set [1], the MIC90 stood at 0.125 µg/mL (≈ 0.152 µM).
